Results on twelve compounds are retold here after ChEMBL document CHEMBL1145220, “Design and synthesis of highly active Alzheimer's beta-secretase (BACE1) inhibitors, KMI-420 and KMI-429, with enhanced chemical stability” (Bioorg Med Chem Lett, 2005).

The target of assay [1] is T1, Beta-secretase 1 (Homo sapiens, UniProt P56817). The assay is described as follows: Inhibitory activity against beta-secretase 1 (BACE1) at 2 uM.
In assay [2] the target is T1, Beta-secretase 1. Kind of assay: Inhibitory activity against beta-secretase 1 (BACE1).
Assay [3] has as its target T1, Beta-secretase 1. The assay is described as follows: Inhibitory activity against beta-secretase 1 (BACE1) at 0.2 uM.

For orientation: inhibition means the drop in the measured response relative to a control, in per cent. In general, IC50 refers to the concentration at which inhibition is half-maximal.

Numbered stars: 1 amine (or outer) side, 2 acyl side, 3 side chain; on linkers, the order of the positions; unused ones are H or OH. Square brackets hold non-standard residues; d marks the D form. Peptide text beside a SMILES is read from it. * marks the point of attachment. β3hPhe(2R-OH) = O=C([C@H](O)[C@H](Cc1ccccc1)N[*:1])[*:2]; Tetrazole5carbonyl = O=C(c1nn[nH]n1)*; Oxalyl = O=C(C(=O)[*:2])[*:1]; Dap = NC[C@H](N)C(=O)O

T1 sequence (P56817 whole entry): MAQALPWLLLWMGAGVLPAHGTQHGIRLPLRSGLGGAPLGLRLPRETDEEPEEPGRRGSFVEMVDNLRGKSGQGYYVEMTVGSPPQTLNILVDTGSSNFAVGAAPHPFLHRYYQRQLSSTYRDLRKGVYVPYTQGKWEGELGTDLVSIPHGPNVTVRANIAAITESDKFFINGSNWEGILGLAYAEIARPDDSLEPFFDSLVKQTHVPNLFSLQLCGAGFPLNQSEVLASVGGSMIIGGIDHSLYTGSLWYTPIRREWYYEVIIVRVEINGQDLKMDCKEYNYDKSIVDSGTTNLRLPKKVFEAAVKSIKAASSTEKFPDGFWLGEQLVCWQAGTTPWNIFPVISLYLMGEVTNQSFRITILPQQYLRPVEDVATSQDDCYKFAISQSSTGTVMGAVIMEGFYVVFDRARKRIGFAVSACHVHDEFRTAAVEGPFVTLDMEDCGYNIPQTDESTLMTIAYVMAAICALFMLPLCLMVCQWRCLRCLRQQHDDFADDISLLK

Take `CC(C)C[C@H](NC(=O)[C@@H](NC(=O)[C@@H](N)CNC(=O)C(=O)O)C(C)C)C(=O)N[C@@H](Cc1ccccc1)[C@@H](O)C(=O)N[C@@H](CC(=O)O)C(=O)N[C@@H](C)C(=O)N[C@@H](CCC(=O)O)C(=O)O` (H-[Dap](Oxalyl)VL[β3hPhe(2R-OH)]DAE-OH): the results for the inhibition against Beta-secretase 1 [1] and against Beta-secretase 1 [3] were 96.7% and 57.6%, respectively. At Beta-secretase 1 [2], this compound returned an IC50 of 84 nM.
In the case of `CC(C)C[C@H](NC(=O)[C@@H](NC(=O)[C@@H](N)CNC(=O)c1nn[nH]n1)C(C)C)C(=O)N[C@@H](Cc1ccccc1)[C@@H](O)C(=O)Nc1cc(C(=O)O)cc(C(=O)O)c1`, the figures for the inhibition against Beta-secretase 1 [1] and against Beta-secretase 1 [3] were 100% and 98.1%, respectively.
For `CC(C)C[C@H](NC(=O)[C@@H](NC(=O)[C@H](CN)NC(=O)C(=O)O)C(C)C)C(=O)N[C@@H](Cc1ccccc1)[C@@H](O)C(=O)Nc1cccc(C(=O)O)c1`, in that order: 87.9% and 58.6%.
For the compound `CC(C)C[C@H](NC(=O)[C@@H](NC(=O)[C@@H](N)CNC(=O)C(=O)O)C(C)C)C(=O)N[C@@H](Cc1ccccc1)[C@@H](O)C(=O)Nc1cccc(C(=O)O)c1`, the inhibition on Beta-secretase 1 [1] was found to be 98.4%; against Beta-secretase 1 [3], 85.5%. In addition, 16 nM corresponded to half-maximal inhibition at Beta-secretase 1 [2] (IC50).
On Beta-secretase 1 [2], `CC(C)C[C@H](NC(=O)[C@@H](NC(=O)[C@@H](N)CNC(=O)c1nnn[nH]1)C(C)C)C(=O)N[C@@H](Cc1ccccc1)[C@@H](O)C(=O)Nc1cccc(C(=O)O)c1` gave an IC50 of 8.2 nM.
`CC(C)C[C@H](NC(=O)[C@@H](NC(=O)[C@@H](N)CNC(=O)c1nnn[nH]1)C(C)C)C(=O)N[C@@H](Cc1ccccc1)[C@@H](O)C(=O)Nc1cc(C(=O)O)cc(C(=O)O)c1`: the half-maximal inhibitory concentration (IC50) at Beta-secretase 1 [2] was 3.9 nM.
Regarding `CC(C)C[C@H](NC(=O)[C@@H](NC(=O)[C@H](CN)NC(=O)c1nn[nH]n1)C(C)C)C(=O)N[C@@H](Cc1ccccc1)[C@@H](O)C(=O)Nc1cccc(C(=O)O)c1`, the inhibition against Beta-secretase 1 [1] came out at 0%.
As for `CC(C)C[C@H](NC(=O)[C@@H](NC(=O)[C@@H](N)CNC(=O)c1nn[nH]n1)C(C)C)C(=O)N[C@@H](Cc1ccccc1)[C@@H](O)C(=O)Nc1cccc(C(=O)O)c1`, the results for the inhibition at Beta-secretase 1 [1] and against Beta-secretase 1 [3] were 99% and 87.1%, respectively.
Turning to `CC(C)C[C@H](NC(=O)[C@@H](NC(=O)[C@@H](N)CNC(=O)C(=O)O)C(C)C)C(=O)N[C@@H](Cc1ccccc1)[C@@H](O)C(=O)Nc1cc(C(=O)O)cc(C(=O)O)c1`, the inhibition came out at 99.8% at Beta-secretase 1 [1] and 96.7% on Beta-secretase 1 [3]. This compound gave an IC50 on Beta-secretase 1 [2] of 4.7 nM.
In the case of `CC(C)C[C@H](NC(=O)[C@@H](NC(=O)[C@H](CN)NC(=O)C(=O)O)C(C)C)C(=O)N[C@@H](Cc1ccccc1)[C@@H](O)C(=O)N[C@@H](CC(=O)O)C(=O)N[C@@H](C)C(=O)N[C@@H](CCC(=O)O)C(=O)O` (Oxalyl-[Dap]VL[β3hPhe(2R-OH)]DAE-OH), the inhibition at Beta-secretase 1 [1] was found to be 75.2%.
For the compound `CC(C)C[C@H](NC(=O)[C@@H](NC(=O)[C@H](CN)NC(=O)c1nn[nH]n1)C(C)C)C(=O)N[C@@H](Cc1ccccc1)[C@@H](O)C(=O)N[C@@H](CC(=O)O)C(=O)N[C@@H](C)C(=O)N[C@@H](CCC(=O)O)C(=O)O` (Tetrazole5carbonyl-[Dap]VL[β3hPhe(2R-OH)]DAE-OH), the inhibition against Beta-secretase 1 [1] was 23.2%.
Turning to `CC(C)C[C@H](NC(=O)[C@@H](NC(=O)[C@@H](N)CNC(=O)c1nn[nH]n1)C(C)C)C(=O)N[C@@H](Cc1ccccc1)[C@@H](O)C(=O)N[C@@H](CC(=O)O)C(=O)N[C@@H](C)C(=O)N[C@@H](CCC(=O)O)C(=O)O` (H-[Dap](Tetrazole5carbonyl)VL[β3hPhe(2R-OH)]DAE-OH), the inhibition at Beta-secretase 1 [1] is 93%; at Beta-secretase 1 [3], 73.1%.
